How the values were obtained:
Test in all cases: relative viability (nuclei count vs DMSO), 5 days (fraction); higher = more cells survive
[1] = test system: COR-L23
Method in brief: (§1)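 Lung cancer cell lines in 1536-well plates got either a single drug or a fixed anchor-drug dose together with five library-drug doses (not always all listed) in √10 steps, by pin tool, on the day after seeding. Nuclei were counted after 5 days, and relative viability is the treated-to-vehicle ratio of nuclei counts. Values are medians of duplicate plates.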

[2] = test system: NCI-H358
Method in brief: as §1

[3] = test system: BEN
Method in brief: as §1

[4] = test system: NCI-H838
Method in brief: as §1

[5] = test system: NCI-H2342
Method in brief: as §1

[6] = test system: LOU-NH91
Method in brief: as §1

[7] = test system: SK-LU-1
Method in brief: as §1

[8] = test system: HCC-366
Method in brief: as §1

[9] = test system: NCI-H1793
Method in brief: as §1

[10] = test system: NCI-H441
Method in brief: as §1

[11] = test system: NCI-H2023
Method in brief: as §1

[12] = test system: NCI-H2085
Method in brief: as §1

[13] = test system: CAL-12T
Method in brief: as §1

[14] = test system: NCI-H1975
Method in brief: as §1

[15] = test system: NCI-H1651
Method in brief: as §1

[16] = test system: NCI-H1355
Method in brief: as §1

[17] = test system: NCI-H1734
Method in brief: as §1

[18] = test system: NCI-H460
Method in brief: as §1

[19] = test system: NCI-H1650
Method in brief: as §1

[20] = test system: LU99A
Method in brief: as §1

[21] = test system: NCI-H1437
Method in brief: as §1

Compound: Cc1sc2c(c1C)C(c1ccc(Cl)cc1)=N[C@@H](CC(=O)OC(C)(C)C)c1nnc(C)n1-2 [JQ1] + CC(=O)c1c(C)c2cnc(Nc3ccc(N4CCNCC4)cn3)nc2n(C2CCCC2)c1=O [Palbociclib] (partner 0.5 µM)
- relative viability ([1]; first compound 0.04 µM): 0.336
- relative viability ([1]; first compound 0.1265 µM): 0.193
- relative viability ([1]; first compound 0.4 µM): 0.25
- relative viability ([1]; first compound 1.265 µM): 0.165
- relative viability ([1]; first compound 4 µM): 0.162
- relative viability ([2]; first compound 0.04 µM): 0.168
- relative viability ([2]; first compound 0.1265 µM): 0.163
- relative viability ([2]; first compound 0.4 µM): 0.153
- relative viability ([2]; first compound 1.265 µM): 0.145
- relative viability ([2]; first compound 4 µM): 0.155
- relative viability ([3]; first compound 0.04 µM): 0.435
- relative viability ([3]; first compound 0.1265 µM): 0.443
- relative viability ([3]; first compound 0.4 µM): 0.476
- relative viability ([3]; first compound 1.265 µM): 0.376
- relative viability ([3]; first compound 4 µM): 0.325
- relative viability ([4]; first compound 0.04 µM): 0.205
- relative viability ([4]; first compound 0.1265 µM): 0.194
- relative viability ([4]; first compound 0.4 µM): 0.167
- relative viability ([4]; first compound 1.265 µM): 0.164
- relative viability ([4]; first compound 4 µM): 0.162
- relative viability ([5]; first compound 0.04 µM): 0.526
- relative viability ([5]; first compound 0.1265 µM): 0.501
- relative viability ([5]; first compound 0.4 µM): 0.535
- relative viability ([5]; first compound 1.265 µM): 0.574
- relative viability ([5]; first compound 4 µM): 0.538
- relative viability ([6]; first compound 0.04 µM): 0.493
- relative viability ([6]; first compound 0.1265 µM): 0.474
- relative viability ([6]; first compound 0.4 µM): 0.491
- relative viability ([6]; first compound 1.265 µM): 0.394
- relative viability ([6]; first compound 4 µM): 0.446
- relative viability ([7]; first compound 0.04 µM): 0.405
- relative viability ([7]; first compound 0.1265 µM): 0.359
- relative viability ([7]; first compound 0.4 µM): 0.35
- relative viability ([7]; first compound 1.265 µM): 0.282
- relative viability ([7]; first compound 4 µM): 0.239
- relative viability ([8]; first compound 0.04 µM): 0.415
- relative viability ([8]; first compound 0.4 µM): 0.202
- relative viability ([8]; first compound 1.265 µM): 0.137
- relative viability ([8]; first compound 4 µM): 0.0766
- relative viability ([9]; first compound 0.04 µM): 0.331
- relative viability ([9]; first compound 0.1265 µM): 0.307
- relative viability ([9]; first compound 0.4 µM): 0.274
- relative viability ([9]; first compound 1.265 µM): 0.335
- relative viability ([9]; first compound 4 µM): 0.334
- relative viability ([10]; first compound 0.04 µM): 0.19
- relative viability ([10]; first compound 0.1265 µM): 0.206
- relative viability ([10]; first compound 0.4 µM): 0.176
- relative viability ([10]; first compound 1.265 µM): 0.137
- relative viability ([10]; first compound 4 µM): 0.132
- relative viability ([11]; first compound 0.04 µM): 0.338
- relative viability ([11]; first compound 0.1265 µM): 0.281
- relative viability ([11]; first compound 0.4 µM): 0.225
- relative viability ([11]; first compound 1.265 µM): 0.135
- relative viability ([11]; first compound 4 µM): 0.105
- relative viability ([12]; first compound 0.04 µM): 0.458
- relative viability ([12]; first compound 0.1265 µM): 0.427
- relative viability ([12]; first compound 0.4 µM): 0.508
- relative viability ([12]; first compound 1.265 µM): 0.418
- relative viability ([12]; first compound 4 µM): 0.462
- relative viability ([13]; first compound 0.04 µM): 0.413
- relative viability ([13]; first compound 0.1265 µM): 0.377
- relative viability ([13]; first compound 0.4 µM): 0.226
- relative viability ([13]; first compound 1.265 µM): 0.114
- relative viability ([13]; first compound 4 µM): 0.233
- relative viability ([14]; first compound 0.04 µM): 0.607
- relative viability ([14]; first compound 0.1265 µM): 0.38
- relative viability ([14]; first compound 0.4 µM): 0.457
- relative viability ([14]; first compound 1.265 µM): 0.287
- relative viability ([14]; first compound 4 µM): 0.248
- relative viability ([15]; first compound 0.04 µM): 0.494
- relative viability ([15]; first compound 0.1265 µM): 0.416
- relative viability ([15]; first compound 0.4 µM): 0.403
- relative viability ([15]; first compound 1.265 µM): 0.299
- relative viability ([15]; first compound 4 µM): 0.282
- relative viability ([16]; first compound 0.04 µM): 0.375
- relative viability ([16]; first compound 0.1265 µM): 0.372
- relative viability ([16]; first compound 0.4 µM): 0.323
- relative viability ([16]; first compound 1.265 µM): 0.276
- relative viability ([16]; first compound 4 µM): 0.233
- relative viability ([17]; first compound 0.04 µM): 0.365
- relative viability ([17]; first compound 0.1265 µM): 0.334
- relative viability ([17]; first compound 0.4 µM): 0.313
- relative viability ([17]; first compound 1.265 µM): 0.279
- relative viability ([17]; first compound 4 µM): 0.303
- relative viability ([18]; first compound 0.04 µM): 0.172
- relative viability ([18]; first compound 0.1265 µM): 0.0585
- relative viability ([18]; first compound 0.4 µM): 0.0456
- relative viability ([18]; first compound 1.265 µM): 0.0198
- relative viability ([18]; first compound 4 µM): 0.0263
- relative viability ([19]; first compound 0.04 µM): 0.322
- relative viability ([19]; first compound 0.1265 µM): 0.264
- relative viability ([19]; first compound 0.4 µM): 0.256
- relative viability ([19]; first compound 1.265 µM): 0.111
- relative viability ([19]; first compound 4 µM): 0.134
- relative viability ([20]; first compound 0.04 µM): 0.465
- relative viability ([20]; first compound 0.4 µM): 0.287
- relative viability ([20]; first compound 1.265 µM): 0.185
- relative viability ([20]; first compound 4 µM): 0.176
- relative viability ([21]; first compound 0.04 µM): 0.266
- relative viability ([21]; first compound 0.1265 µM): 0.251
- relative viability ([21]; first compound 0.4 µM): 0.218
- relative viability ([21]; first compound 1.265 µM): 0.296
- relative viability ([21]; first compound 4 µM): 0.217
